Source: the NIST ThermoML archive (doi:10.1021/acs.jced.8b00201)

Experiment: xn = mol fraction of the nth substance listed
Details: 100 kPa, Liquid; for viscosity: Concentric cylinders viscometry; for mass density: Vibrating tube method

O=C1CCCCC1 [cyclohexanone] + CCCCCCCCO
Details	mass density [kg/m3]	viscosity [mPa·s]
293.15 K, x1 = 0.0803	831.3	7.76
293.15 K, x1 = 0.1519	837.4	6.62
293.15 K, x1 = 0.2388	845.2	5.58
293.15 K, x1 = 0.3427	855.4	4.48
293.15 K, x1 = 0.4378	865.6	3.72
293.15 K, x1 = 0.5606	880	2.97
293.15 K, x1 = 0.6498	891.6	2.57
293.15 K, x1 = 0.7407	904.5	2.33
293.15 K, x1 = 0.8422	920.4	2.28
293.15 K, x1 = 0.9377	937.4	2.25
293.15 K, x1 = 1	948.8	2.3
298.15 K, x1 = 0.0803	827.7	6.52
298.15 K, x1 = 0.1519	833.6	5.65
298.15 K, x1 = 0.2388	841.3	4.8
298.15 K, x1 = 0.3427	851.2	3.91
298.15 K, x1 = 0.4378	861.2	3.29
298.15 K, x1 = 0.5606	875.4	2.66
298.15 K, x1 = 0.6498	886.8	2.32
298.15 K, x1 = 0.7407	899.5	2.13
298.15 K, x1 = 0.8422	915.1	2.07
298.15 K, x1 = 0.9377	931.4	2.04
298.15 K, x1 = 1	943.1	2.09
303.15 K, x1 = 0.0803	824.1	5.54
303.15 K, x1 = 0.1519	829.8	4.87
303.15 K, x1 = 0.2388	837.4	4.17
303.15 K, x1 = 0.3427	847.2	3.44
303.15 K, x1 = 0.4378	857	2.94
303.15 K, x1 = 0.5606	871.1	2.42
303.15 K, x1 = 0.6498	882.3	2.16
303.15 K, x1 = 0.7407	894.9	1.97
303.15 K, x1 = 0.8422	910.4	1.9
303.15 K, x1 = 0.9377	926.6	1.87
303.15 K, x1 = 1	938.2	1.91
308.15 K, x1 = 0.0803	820.5	4.73
308.15 K, x1 = 0.1519	826.1	4.16
308.15 K, x1 = 0.2388	833.6	3.61
308.15 K, x1 = 0.3427	843.2	3.03
308.15 K, x1 = 0.4378	852.9	2.6
308.15 K, x1 = 0.5606	866.8	2.15
308.15 K, x1 = 0.6498	877.9	1.94
308.15 K, x1 = 0.7407	890.4	1.79
308.15 K, x1 = 0.8422	905.9	1.74
308.15 K, x1 = 0.9377	922	1.72
308.15 K, x1 = 1	933.5	1.75
313.15 K, x1 = 0.0803	816.8	4.07
313.15 K, x1 = 0.1519	822.4	3.6
313.15 K, x1 = 0.2388	829.7	3.12
313.15 K, x1 = 0.3427	839.2	2.63
313.15 K, x1 = 0.4378	848.8	2.3
313.15 K, x1 = 0.5606	862.5	1.95
313.15 K, x1 = 0.6498	873.6	1.75
313.15 K, x1 = 0.7407	886	1.64
313.15 K, x1 = 0.8422	901.3	1.6
313.15 K, x1 = 0.9377	917.3	1.57
313.15 K, x1 = 1	928.8	1.6
318.15 K, x1 = 0.0803	813.1	3.51
318.15 K, x1 = 0.1519	818.6	3.11
318.15 K, x1 = 0.2388	825.8	2.73
318.15 K, x1 = 0.3427	835.2	2.32
318.15 K, x1 = 0.4378	844.7	2.04
318.15 K, x1 = 0.5606	858.4	1.75
318.15 K, x1 = 0.6498	869.3	1.6
318.15 K, x1 = 0.7407	881.6	1.5
318.15 K, x1 = 0.8422	896.9	1.46
318.15 K, x1 = 0.9377	912.9	1.44
318.15 K, x1 = 1	924.4	1.46
323.15 K, x1 = 0.0803	809.5	3.03
323.15 K, x1 = 0.1519	814.9	2.73
323.15 K, x1 = 0.2388	822.1	2.42
323.15 K, x1 = 0.3427	831.5	2.09
323.15 K, x1 = 0.4378	841	1.85
323.15 K, x1 = 0.5606	854.6	1.6
323.15 K, x1 = 0.6498	865.5	1.46
323.15 K, x1 = 0.7407	877.9	1.37
323.15 K, x1 = 0.8422	893.2	1.34
323.15 K, x1 = 0.9377	909.2	1.32
323.15 K, x1 = 1	920.7	1.34
